Measurements reported in patent US12077503B2, “Substituted cyclic amides and their use as herbicides” (FMC CORPORATION, priority 2015, dated 2024).

Experiments:
Type in all cases: in vivo
[1] = test system: ducksalad (Heteranthera limosa); test: Test B flooded paddy test; conditions: Heteranthera limosa, 250 g ai/ha, Flood; 0 to 100 scale where 0 is no effect and 100 is complete control; read-out: Ducksalad plant response rating
Method in brief: (§1)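 Flooding to 3 cm over soil accompanied treatment, which consisted of adding compound to the standing water around 2-leaf plants; depth was then maintained. Visual assessment versus controls followed at 13 to 15 d (scale 0–100, 0 meaning no effect).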

rice (Oryra sativa) = test: Test B flooded paddy test; conditions: Oryza sativa, 250 g ai/ha, Flood; 0 to 100 scale where 0 is no effect and 100 is complete control; read-out: Rice plant response rating
Method in brief: as §1

[2] = test system: barnyardgrass (Echinochloa crus-galli); test: Test B flooded paddy test; conditions: Echinochloa crus-galli, 250 g ai/ha, Flood; 0 to 100 scale where 0 is no effect and 100 is complete control; read-out: Barnyardgrass plant response rating
Method in brief: as §1

[3] = test system: sedge, umbrella (small-flower umbrella sedge, Cyperus difformis); test: Test B flooded paddy test; conditions: Cyperus difformis, 250 g ai/ha, Flood; 0 to 100 scale where 0 is no effect and 100 is complete control; read-out: Sedge, Umbrella plant response rating
Method in brief: as §1

[4] = test system: giant foxtail (Setaria faberii); test: Test A preemergence; conditions: Setaria faberi, pre-emergence, 240 h, Preemergence
Method in brief: (§2)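 Compounds were formulated in a non-phytotoxic solvent mixture with surfactant and applied as a preemergence directed soil spray after seeding, or sprayed postemergence over plants 2 to 10 cm tall at the one- to two-leaf stage. Evaluation after about 10 d compared treated with untreated controls, using a scale from 0 (no effect) to 100 (complete control).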

[5] = test system: ryegrass, Italian (Italian ryegrass, Lolium multiflorum); test: Test A preemergence; conditions: Lolium multiflorum, pre-emergence, 240 h, Preemergence
Method in brief: as §2

[6] = test system: barnyardgrass (Echinochloa crus-galli); test: Test A preemergence; conditions: Echinochloa crus-galli, pre-emergence, 240 h, Preemergence
Method in brief: as §2

[7] = test system: ragweed (common ragweed, Ambrosia elatior); test: Test A preemergence; conditions: Ambrosia artemisiifolia, pre-emergence, 240 h, Preemergence
Method in brief: as §2

Kochia (Kochia scoparia) [8] = test: Test A preemergence; conditions: Bassia scoparia, pre-emergence, 240 h, Preemergence
Method in brief: as §2

[9] = test system: pigweed (Amaranthus retroflexus); test: Test A preemergence; conditions: Amaranthus retroflexus, pre-emergence, 240 h, Preemergence
[10] = test system: giant foxtail (Setaria faberii); test: Test A postemergence; conditions: Setaria faberi, post-emergence, 240 h, Postemergence, read-out: Plant response rating, Foxtail, Giant
Method in brief: as §2

[11] = test system: ryegrass, Italian (Italian ryegrass, Lolium multiflorum); test: Test A postemergence; conditions: Lolium multiflorum, post-emergence, 240 h, Postemergence, read-out: Plant response rating, Ryegrass, Italian
Method in brief: as §2

[12] = test system: barnyardgrass (Echinochloa crus-galli); test: Test A postemergence; conditions: Echinochloa crus-galli, post-emergence, 240 h, Postemergence, read-out: Plant response rating, Barnyardgrass
Method in brief: as §2

[13] = test system: ragweed (common ragweed, Ambrosia elatior); test: Test A postemergence; conditions: Ambrosia artemisiifolia, post-emergence, 240 h, Postemergence, read-out: Plant response rating, Ragweed
Method in brief: as §2

Kochia (Kochia scoparia) [14] = test: Test A postemergence; conditions: Bassia scoparia, post-emergence, 240 h, Postemergence, read-out: Plant response rating, Kochia
Method in brief: as §2

[15] = test system: blackgrass (Alopecurus myosuroides); test: Test A postemergence; conditions: Alopecurus myosuroides, post-emergence, 240 h, Postemergence, read-out: Plant response rating, Blackgrass
Method in brief: as §2

[16] = test system: pigweed (Amaranthus retroflexus); test: Test A postemergence; conditions: Amaranthus retroflexus, post-emergence, 240 h, Postemergence, read-out: Plant response rating, Pigweed
Method in brief: as §2

[17] = test system: Galium (catchweed bedstraw, Galium aparine); test: Test A postemergence; conditions: Galium, post-emergence, 240 h, Postemergence, read-out: Plant response rating, Galium
Method in brief: as §2

[18] = test system: wheat (Triticum aestivum); test: Test A postemergence; conditions: Triticum aestivum, post-emergence, 240 h, Postemergence, read-out: Plant response rating, Wheat
Method in brief: as §2

corn (Zea mays) = test: Test A postemergence; conditions: Zea mays, post-emergence, 240 h, Postemergence
Method in brief: as §2

[19] = 125 g ai/ha, visual injury after approximately 10 d, 0 to 100 scale where 0 is no effect and 100 is complete control
[20] = 31 g ai/ha, visual injury after approx. 10 d, 0 to 100 scale, 0 no effect, 100 complete control

In the case of `CC(C)=CC1CNC(=O)C1C(=O)Nc1cccc(F)c1F` (stereo not drawn) [Compound 1012], the pest or weed control at 250 g/ha [1] is reported as 0%, the pest or weed control at 250 g/ha (rice (Oryra sativa)) is reported as 20% and the pest or weed control at 250 g/ha [2] is reported as 0%. It also gave a pest or weed control at 250 g/ha [3] of 0%, a pest or weed control at 125 g/ha ([4]; 125 g ai/ha, visual injury rating after approximately 10 d, read-out: Foxtail, Giant plant response rating (0 to 100 scale, 0 is no effect, 100 is complete control)) of 0% and a pest or weed control at 31 g/ha ([4]; 31 g ai/ha, 0 to 100 scale (0 no effect, 100 complete control), read-out: Plant response rating, Foxtail, Giant) of 0%. It also gave a pest or weed control at 31 g/ha ([5]; 31 g ai/ha, 0 to 100 scale where 0 is no effect and 100 is complete control, read-out: Ryegrass, Italian plant response rating) of 0%, a pest or weed control at 125 g/ha ([5]; 125 g ai/ha, visual injury rating after approximately 10 d, read-out: Ryegrass, Italian plant response rating (0 to 100 scale, 0 is no effect, 100 is complete control)) of 0% and a pest or weed control at 125 g/ha ([6]; 125 g ai/ha, visual injury rating after approximately 10 d, read-out: Barnyardgrass plant response rating (0 to 100 scale, 0 is no effect, 100 is complete control)) of 0%. For the same molecule, the pest or weed control at 31 g/ha ([6]; 31 g ai/ha, 0 to 100 scale (0 no effect, 100 complete control), read-out: Plant response rating, Barnyardgrass) was 0%, the pest or weed control at 31 g/ha ([7]; 31 g ai/ha, 0 to 100 scale where 0 is no effect and 100 is complete control, read-out: Ragweed plant response rating) was 0% and the pest or weed control at 125 g/ha ([7]; 125 g ai/ha, visual injury rating after approximately 10 d, read-out: Ragweed plant response rating (0 to 100 scale, 0 is no effect, 100 is complete control)) was 0%. It also gave a pest or weed control at 31 g/ha (Kochia (Kochia scoparia) [8]; 31 g ai/ha, 0 to 100 scale where 0 is no effect and 100 is complete control, read-out: Kochia plant response rating) of 0%, a pest or weed control at 125 g/ha (Kochia (Kochia scoparia) [8]; 125 g ai/ha, visual injury rating after approximately 10 d, read-out: Kochia plant response rating (0 to 100 scale, 0 is no effect, 100 is complete control)) of 0% and a pest or weed control at 31 g/ha ([9]; 31 g ai/ha, 0 to 100 scale where 0 is no effect and 100 is complete control, read-out: Pigweed plant response rating) of 0%. The pest or weed control at 125 g/ha ([9]; 125 g ai/ha, visual injury rating after approximately 10 d, read-out: Pigweed plant response rating (0 to 100 scale, 0 is no effect, 100 is complete control)) was 0%, the pest or weed control at 125 g/ha [10, 19] was 0% and the pest or weed control at 31 g/ha [10, 20] was 0%. The pest or weed control at 125 g/ha [11, 19] was 0%, the pest or weed control at 31 g/ha [11, 20] was 0% and the pest or weed control at 125 g/ha [12, 19] was 0%. The pest or weed control at 31 g/ha [12, 20] was 0%, the pest or weed control at 125 g/ha [13, 19] was 0% and the pest or weed control at 31 g/ha [13, 20] was 0%. For the same molecule, the pest or weed control at 125 g/ha (Kochia (Kochia scoparia) [14]; [19]) was 0%, the pest or weed control at 31 g/ha (Kochia (Kochia scoparia) [14]; [20]) was 0% and the pest or weed control at 125 g/ha [15, 19] was 0%. The pest or weed control at 31 g/ha [15, 20] was 0%, the pest or weed control at 125 g/ha [16, 19] was 0% and the pest or weed control at 31 g/ha [16, 20] was 0%. The pest or weed control at 125 g/ha [17, 19] was 0%, the pest or weed control at 31 g/ha [17, 20] was 0% and the plant injury at 125 g/ha [18, 19] was 0%. The plant injury at 31 g/ha [18, 20] was 0%, the Corn plant response rating (crop injury, 0 = no effect, 100 = complete kill) at 125 g/ha (corn (Zea mays); [19]) was 0% and the Corn plant response rating (crop injury, 0 = no effect, 100 = complete kill) at 31 g/ha (corn (Zea mays); [20]) was 0%.
